Source: article PMC5429698, “Biochemical analysis of leishmanial and human GDP-Mannose Pyrophosphorylases and selection of inhibitors as new leads” (Scientific Reports, 2017)
Like-named read-outs stand apart in the source and are kept apart here.

Columns and labels:
T. brucei GDP-MP = tested on: T. brucei GDP-MP; set-up: method as in PMID 19919534; details: cited from earlier work
LmGDP-MP = LmGDP-MP (Leishmania mexicana, UniProt E9AW11); assay: biochemical; assay type: biochemical
Experimental: (§1) GDP-MP catalyzes the following reaction: Man‐1‐P+GTP→GDP−Mannose+Pyrophosphate The reaction media were buffered at pH optima and contained optimal concentrations of Man-1-P, GTP, GDP-MP and Mg^2+ determined for each purified GDP-MP (Fig. 2d), supplemented with DTT (1 mM). Inorganic pyrophosphatase, which hydrolyses the inorganic pyrophosphates generated by the GDP-MPs in inorganic phosphates, was added at 0.1 U/ml (Sigma-Aldrich). Inorganic pyrophosphatase was added in excess to the reaction medium in order to minimize the probability that the putative inhibitors of GDP-MPs interfere with this enzyme. The reaction was initiated by the addition of GDP-MP, and was stopped after adding 100 µl of revelation buffer containing malachite green (0.03% w/v), ammonium molybdate (0.2% w/v) and Triton X-100 (0.05% v/v) in HCl (0.7 M) for 5 min at the optimal temperature. The quantity of inorganic phosphate generated, representing GDP-MP activity, was determined by measuring OD650nm (Lab systems Multiskan MS). The molar extinction coefficient ε of the end product detected was determined by measuring OD650nm with a range of inorganic phosphate concentrations diluted in the revelation buffer and was calculated at 27207 M^−1 cm^−1 (Supplementary Fig. S2). The kinetic constants K m, V m and k cat were determined by non linear regression using GraphPad Prism 6.0.
(§2) Enzyme activity was measured as described above in the presence of 100 µM of compounds and the percentage of inhibition was calculated in reference to untreated enzyme. As a control, compounds were evaluated in parallel in the same conditions on inorganic pyrophosphatase alone in order to discard false-positives. […] Furthermore, no effect was observed on the activity of the three purified GDP-MPs with 1% DMSO, corresponding to the maximal solvent concentration used at 100 µM of compound. Compounds presenting a minimum of 50% inhibition on a leishmanial GDP-MP were subsequently selected to determine their type of inhibition and their K i values. Inhibition data were fitted to competitive, non-competitive or uncompetitive models of enzyme inhibition by non linear least squares regression analysis using GraphPad Prism 6.0.

[1] = tested on: L. donovani axenic amastigotes; assay: Antileishmanial evaluation on axenic amastigotes (resazurin); assay type: cell-based; details: Leishmania donovani, 72 h, 72 h treatment, 37 °C; read-out: IC50 (µM) ± SD L. donovani axenic amastigotes
Experimental: (§3) The evaluations of activity on axenic and intramacrophage amastigotes were adapted from the protocols previously described. Briefly, for the evaluation on axenic amastigotes, two fold serial dilutions of the compounds from a maximal concentration of 100 µM were performed in 100 µl of complete medium (see above) in 96-well microplates. Axenic amastigotes were then added to each well at a density of 10^6/ml in a 200 µl final volume. After 72 h of treatment at 37 °C for L. donovani or at 32 °C for L. mexicana with 5% CO2, 20 µl of resazurin (450 µM) was added to each well and further incubated in the dark for 24 h at 37 °C for L. donovani or at 32 °C for L. mexicana with 5% CO2. In living cells, resazurin is reduced in resorufin and this conversion is monitored by measuring OD570nm (resorufin) and OD600nm (resazurin; Lab systems Multiskan MS). The activity of the compounds was expressed as IC50. Miltefosine was used as the reference drug.

[2] = tested on: L. mexicana axenic amastigotes; assay: as above; assay type: cell-based; details: Leishmania mexicana, 72 h
Experimental: as §3

[3] = tested on: L. donovani intramacrophage amastigotes in infected RAW.264.7 macrophages; assay: Antileishmanial evaluation on intramacrophage amastigotes, RAW264.7 host; assay type: cell-based; details: for Selectivity index (CC50/IC50) L. donovani RAW264.7 macrophages: CC50 RAW264.7 / IC50 infected RAW264.7; for IC50: Leishmania donovani, RAW264.7, 48 h, 48 h treatment, read-out: IC50 (µM) ± SD L. donovani infected RAW.264.7 macrophages
Experimental: (§4) Concerning the evaluation on intramacrophage amastigotes, RAW 264.7 macrophages (from ATCC) and bone marrow derived macrophages (BMDM) were plated in 96-well microplates at a density of 2 × 10^4 cells per well and incubated for 24 h at 37 °C with 5% CO2 for RAW264.7 cells or at 37 °C with 7% CO2 for BMDM. Axenic amastigotes were differenciated as described above, centrifuged at 2,000 g for 10 min, resuspended in DMEM complete medium, and added to each well to reach a 16:1 parasite to macrophage ratio. After 24 h of infection at 37 °C with 5% CO2 for RAW264.7 cells or at 37 °C with 7% CO2 for BMDM, extracellular parasites were removed, and DMEM complete medium (100 µl) containing two fold serial dilutions of the compounds from a maximal concentration of 100 µM was added to each well. After 48 h of treatment, the medium was removed and replaced by DirectPCR Lysis Reagent (100 µl; Euromedex) before 3 freeze-thaw cycles at room temperature, addition of 50 µg/ml proteinase K, and a final incubation at 55 °C overnight to allow cell lysis. 10 µl of each cell extract was then added to 40 µl of DirectPCR Lysis reagent containing Sybr Green I (0.05%; Invitrogen). DNA fluorescence was monitored using Mastercycler® realplex (Eppendorf). The activity of the compounds was expressed as IC50. Miltefosine was used as the reference drug.

[4] = tested on: L. donovani intramacrophage amastigotes in infected BMDM; assay: Antileishmanial evaluation on intramacrophage amastigotes, BMDM host; assay type: cell-based; details: for Selectivity index (CC50/IC50) L. donovani BMDM: CC50 BMDM / IC50 infected BMDM; for IC50: Leishmania donovani, BMDM, 48 h treatment, read-out: IC50 (µM) ± SD L. donovani infected BMDM
Experimental: as §4

[5] = tested on: L. mexicana intramacrophage amastigotes in infected BMDM; assay: microbe, parasite or virus in culture; assay type: cell-based; details: for IC50: Leishmania mexicana, BMDM, 48 h, 48 h treatment, read-out: IC50 (µM) ± SD L. mexicana infected BMDM
Experimental: as §4

[6] = tested on: L. mexicana intramacrophage amastigotes in infected RAW.264.7 macrophages; assay: microbe, parasite or virus in culture; assay type: cell-based; details: for IC50: 48 h treatment, read-out: IC50 (µM) ± SD L. mexicana infected RAW.264.7 macrophages
Experimental: as §4

Cytotoxicity (resazurin) [7] = assay type: cell-based; details: mouse, RAW264.7 macrophages; 48 h incubation; read-out: Cytotoxicity CC50 (µM) ± SD RAW264.7 macrophages
Experimental: (§5) Cells were plated in 96-well microplates at a density of 2 × 10^4 cells per well. After an incubation of 24 h at 37 °C with 5% CO2 for RAW264.7 cells or at 37 °C with 7% CO2 for BMDM, the medium was removed in each well, and 100 µl of DMEM complete medium containing two fold serial dilutions of the compounds was added to each well. […] Cell viability was then monitored as described above.

Cytotoxicity (resazurin) [8] = assay type: cell-based, Balb/c mice; details: Balb/c, mouse, bone marrow derived macrophages (BMDM); 48 h incubation; read-out: Cytotoxicity CC50 (µM) ± SD BMDM
Experimental: as §5

[9] = tested on: inorganic pyrophosphatase; assay: Control for false positives on inorganic pyrophosphatase alone; assay type: biochemical; details: compound at 100 µM, same conditions as the GDP-MP assay
Experimental: as §2

[10] = tested on: leishmanial GDP-MP (LdGDP-MP and/or LmGDP-MP); assay: Screen of the 100 compound library at 100 µM on purified leishmanial GDP-MPs; assay type: biochemical, Leishmania; details: compound at 100 µM
Experimental: as §1, §2

[11] = 72 h treatment, 32 °C, read-out: IC50 (µM) ± SD L. mexicana axenic amastigotes
[12] = CC50 RAW264.7 / IC50 infected RAW264.7
[13] = Leishmania mexicana, RAW264.7, 48 h

Sequence of LmGDP-MP (E9AW11 entry or part of it): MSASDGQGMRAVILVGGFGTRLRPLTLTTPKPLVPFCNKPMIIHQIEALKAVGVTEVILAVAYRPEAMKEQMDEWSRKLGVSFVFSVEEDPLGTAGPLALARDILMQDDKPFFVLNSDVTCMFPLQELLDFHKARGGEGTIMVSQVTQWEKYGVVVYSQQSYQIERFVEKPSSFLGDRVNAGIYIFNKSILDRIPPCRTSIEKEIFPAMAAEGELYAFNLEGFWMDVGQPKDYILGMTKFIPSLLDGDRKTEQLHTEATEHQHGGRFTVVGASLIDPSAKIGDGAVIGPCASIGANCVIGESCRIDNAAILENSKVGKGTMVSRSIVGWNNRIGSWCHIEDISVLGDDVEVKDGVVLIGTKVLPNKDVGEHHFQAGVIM

Nc1ncnc2c1ncn2[C@@H]1O[C@H](COP(=O)(O)OP(=O)(O)OP(=O)(O)O)[C@@H](O)[C@H]1O [ATP]
Km (T. brucei GDP-MP): 290 µM

Nc1nc2c(ncn2C2OC(Cn3cc(-c4ccc(-c5ccccc5)cc4)nn3)C(O)C2O)c(=O)[nH]1 (centres unmarked) [compound 83]
Ki (LmGDP-MP): 25.4 ± 4.23 µM | IC50 [1]: > 100 µM | IC50 [2, 11]: 30.6 ± 3.29 µM | Selectivity index (CC50/IC50) L. donovani RAW264.7 macrophages [3]: >1.9 | IC50 [3]: 51.9 ± 7.49 µM | Selectivity index (CC50/IC50) L. donovani BMDM [4]: 0.9 | IC50 [4]: 27.1 ± 2.04 µM | Selectivity index (CC50/IC50) L. mexicana BMDM ([5]; CC50 BMDM / IC50 infected BMDM): 0.9 | IC50 [5]: 25.9 ± 5.37 µM | Selectivity index (CC50/IC50) L. mexicana RAW264.7 macrophages [6, 12]: >2.2 | IC50 [6, 13]: 45.4 ± 6.21 µM | CC50 at 48 h (Cytotoxicity (resazurin) [7]): > 100 µM | CC50 at 48 h (Cytotoxicity (resazurin) [8]): 23.8 ± 1.98 µM | inhibition of inorganic pyrophosphatase [9]: < 5% | enzyme inhibition on a leishmanial GDP-MP [10]: above 50%

Clc1ccc2nc(COCCn3cc(-c4ccc(-c5ccccc5)cc4)nn3)ccc2c1 [compound 92]
Ki (LmGDP-MP): 16 ± 3.51 µM | IC50 [1]: > 100 µM | IC50 [2, 11]: 43.1 ± 3.42 µM | Selectivity index (CC50/IC50) L. donovani RAW264.7 macrophages [3]: >2.4 | IC50 [3]: 41.6 ± 14 µM | Selectivity index (CC50/IC50) L. donovani BMDM [4]: 0.9 | IC50 [4]: 82.5 ± 7.61 µM | Selectivity index (CC50/IC50) L. mexicana BMDM ([5]; CC50 BMDM / IC50 infected BMDM): 1.0 | IC50 [5]: 79.3 ± 9.76 µM | IC50 [6]: 8.25 ± 1.07 µM | Selectivity index (CC50/IC50) L. mexicana RAW264.7 macrophages [6, 12]: >12.1 | IC50 [6, 13]: < 10 µM | CC50 at 48 h (Cytotoxicity (resazurin) [7]): > 100 µM | CC50 at 48 h (Cytotoxicity (resazurin) [8]): 77.5 ± 5.34 µM | inhibition of inorganic pyrophosphatase [9]: < 5% | enzyme inhibition on a leishmanial GDP-MP [10]: above 50%

CCCCCCCCCCCCCCCCOP(=O)([O-])OCC[N+](C)(C)C [Miltefosine, reference compound]
IC50 [1]: 2.08 ± 0.24 µM | IC50 ([2]; read-out: IC50 (µM) ± SD L. mexicana axenic amastigotes, 72 h treatment, 32 °C): 23.7 ± 2.81 µM | IC50 [3]: 1.83 ± 0.22 µM | Selectivity index (CC50/IC50) L. donovani BMDM [4]: >30.1 | IC50 [4]: 0.83 ± 0.12 µM | Selectivity index (CC50/IC50) L. mexicana BMDM [5]: >0.5 | IC50 [5]: 51.4 ± 5.34 µM | Selectivity index (CC50/IC50) L. mexicana RAW264.7 macrophages [6]: >0.5 | IC50 [6, 13]: 52.6 ± 4.98 µM | CC50 at 48 h (Cytotoxicity (resazurin) [7]): > 25 µM | CC50 at 48 h (Cytotoxicity (resazurin) [8]): > 25 µM

O=P(O)(O)OC1O[C@H](CO)[C@@H](O)[C@H](O)[C@@H]1O (some centres unmarked) [Man-1-P, mannose-1-phosphate]
Km (LmGDP-MP; read-out: Km (µM) ± SD of LmGDP-MP): 11.6 ± 1.76 µM
